As a reminder, the IC50 is the concentration at which inhibition is half-maximal. A lower IC50 goes with greater potency in that assay.

Drawing on BindingDB's records for PubMed 34735766 (Shandong University, 2021), this text covers IC50 for one compound.

A short description of the experiment: Inhibition of Influenza A virus H1N1 Neuraminidase.

Take `CCC(CC)O[C@@H]1C=C(C(=O)O)C[C@H](NCc2ccc(Sc3ccccc3)cc2)[C@H]1NC(C)=O`: the IC50 stood at 5.6 nM.
